Test results published in patent publication US9637738B2, “Methods and agents to increase therapeutic dystrophin expression in muscle” (Reveragen Biopharma, Inc., priority 2013, dated 2017).
“Also recorded” adds a separate entry of the source.

Tests used:
[1] = test system: human dystrophin 3′UTR; assay: Dys 3′UTR luciferase reporter assay in C2C12 myoblasts co-transfected with microRNA mimics; format: cell-based, mouse; conditions: C2C12 myoblasts co-transfected with 200 ng Dys 3′UTR reporter and 50 nM microRNA mimic, Renilla luciferase normalized to internal control
[2] = test system: miR-223; assay: qRT-PCR of miR-223 in gastrocnemius of drug-treated mdx23 mice; format: in vivo, mouse; conditions: 5 mg/kg prednisolone or 15 mg/kg VBP-15
Procedure: (§1) FIG. 8—Treatment with anti-inflammatories modulates dystrophin-targeting microRNAs. (a) VBP15 and prednisolone reduces dystrophin-targeting microRNA levels; miR-146a, miR-146b and miR-223 levels in the gastrocnemius of wild-type mice and vehicle, prednisolone, or […] mdx23 mice were assessed via qPCR; results were normalized to wild-type levels. […] All statistical analyses were performed in Prism Graph Pad 5.0, One-Way ANOVA with Bonferroni post-test (*p<0.05; **p<0.01).
(§2) 20 mg frozen muscle was homogenized in TriZol reagent (Invitrogen), followed by RNA extraction. microRNAs were quantified with 7900HT Fast Real-Time PCR system using mouse-specific TaqMan microRNA assays with U6 snRNA as a control. Results were calculated as above using the 2(−ΔΔC(T)) method (Schmittgen, 2001).
(§3) Mdx23 (C57BL/10ScSn-Dmd/J) mice (The Jackson laboratories) were dosed with 5 mg/kg prednisolone or 15 mg/kg […] as previously reported (Heier et al, 2013).
(§4) Exon skipping therapies in DMD will likely be used in combination with either current glucocorticoid standards of care, or next-generation steroid derivatives moving towards clinical use (Heier et al 2012). Because these drugs affect transcriptional regulation and/or inflammatory miRNA signaling, we tested what their effects on levels of dystrophin-regulating miRNAs might be.

[3] = test system: miR-146a; assay: qRT-PCR of miR-146a in gastrocnemius of drug-treated mdx23 mice; format: in vivo, mouse; conditions: 5 mg/kg prednisolone or 15 mg/kg VBP-15, p<0.01
Procedure: as §1, §2, §3, §4

[4] = test system: miR-146b; assay: qRT-PCR of miR-146b in gastrocnemius of drug-treated mdx23 mice; format: in vivo, mouse; conditions: 5 mg/kg prednisolone or 15 mg/kg VBP-15
Procedure: as §1, §2, §3, §4

[5] = test system: dystrophin protein; assay: Systemic delivery of PMO to mdx23 mice, dystrophin rescue by SILAM mass spectrometry and immunoblot; format: in vivo, mouse; conditions: single 800 mg/kg intravenous injection, 1 month post-injection, SILAM mass spectrometry
Procedure: FIG. 7—Dystrophin-regulating microRNAs levels promote observed variability of dystrophin protein production in PMO-treated mdx mice. (a) Dystrophin levels were analyzed via mass spec and miRNA levels were assessed in the diaphragm, TA and Gastroc. […] All statistical analyses were performed in Prism Graph Pad 5.0, One-Way ANOVA with Bonferroni post-test (*p<0.05; **p<0.01; ***p<0.001). (b) The tricep, TA and gastroc in 3 PMO-treated mice were chosen for analysis. Dystrophin levels were analyzed via mass spec and microRNA levels were analyzed via qPCR. For analysis, Each miRNA's values were grouped by muscle, mean and SD were calculated. The deviation from the appropriate mean was calculated for each individual miRNA value. These deviations were assigned a score of low, mid or high, defined by the following rule: those falling within 0.5 SD of the mean were assigned a “mid” score, those greater than 0.5 SD of the mean were assigned a “high score”, and those less than 0.5 SD of the mean were assigned a “low” score. Mean % dystrophin levels were then compared using an independent t-test. […]
We tested whether variable levels of dystrophin-regulating microRNAs in muscle […] of dystrophin rescue by exon skipping. […] From one mouse, adjacent cryosections of the tibialis anterior (TA), gastrocnemius, and diaphragm muscles were analyzed for dystrophin protein content by SILAM mass spectrometry (Brown et al. 2013) and immunoblotting, and for dystrophin-regulating microRNA content by TaqMan (real time PCR) assays (FIG. 7a).

[6] = test system: miR-382; assay: qRT-PCR of miR-382 in gastrocnemius of drug-treated mdx23 mice; format: in vivo, mouse; conditions: 5 mg/kg prednisolone or 15 mg/kg VBP-15, p<0.05 for prednisone
Procedure: as §1, §2, §3, §4

[7] = test system: miR-320a; assay: qRT-PCR of miR-320a in gastrocnemius of drug-treated mdx23 mice; format: in vivo, mouse; conditions: 5 mg/kg prednisolone or 15 mg/kg VBP-15, p=0.22 for prednisone
Procedure: as §1, §2, §3, §4

miR-374a: microRNA mimic; hsa-miR-374a 3′-GUGAAUAGUCCAACAUAAUAUU-5′ (SEQ ID NO: 9) (listed as RNA, chemistry not given here; listed 3' to 5'; listed as Homo sapiens)
luciferase protein expression from Dys 3′UTR reporter [1]: significantly inhibited; also recorded: most potent downregulation; also recorded: strong inhibition

C[C@@H]1CC2C3CCC4=CC(=O)C=C[C@]4(C)C3=CC[C@]2(C)[C@@]1(O)C(=O)CO (stereo partly drawn) [VBP-15, (10S,13S,16R,17R)-17-hydroxy-17-(2-hydroxyacetyl)-10,13,16-trimethyl-6,7,8,10,12,13,14,15,16,17-decahydro-3H-cyclopenta[a]phenanthren-3-one]
miR-223 levels over untreated mice [2]: trend of decreases
miR-146a levels over untreated mice [3]: significantly reduced
miR-146b levels over untreated mice [4]: trend of decreases

miR-382: microRNA mimic; hsa-miR-382 3′-GCUUAGGUGGUGCUUGUUGAAG-5′ (SEQ ID NO: 14) (listed as RNA, chemistry not given here; listed 3' to 5'; listed as Homo sapiens)
luciferase protein expression from Dys 3′UTR reporter [1]: significantly inhibited

exon 23-targeting morpholino: PMO (Gene Tools): 5′-GGCCAAACCTCGGCTTACCTGAAAT-3′ (SEQ ID NO:33) (all phosphorodiamidate morpholino (PMO); listed as Mus musculus)
dystrophin rescue in diaphragm [5]: 5 % wild-type levels
dystrophin rescue in gastrocnemius [5]: 5 % wild-type levels
dystrophin rescue in tibialis anterior (TA) [5]: 40 % wild-type levels

miR-223: microRNA mimic; hsa-miR-223 3′-ACCCCAUAAACUGUUUGACUGU-5′ (SEQ ID NO: 5) (listed as RNA, chemistry not given here; listed 3' to 5'; listed as Homo sapiens)
luciferase protein expression from Dys 3′UTR reporter [1]: significantly inhibited

miR-146a: microRNA mimic; hsa-miR-146a 3′-UUGGGUACCUUAAGUCAAGAGU-5′ (SEQ ID NO: 1) (listed as RNA, chemistry not given here; listed 3' to 5'; listed as Homo sapiens)
luciferase protein expression from Dys 3′UTR reporter [1]: significantly inhibited

miR-320a: microRNA mimic; hsa-miR-320a 3′-AGCGGGAGAGUUGGGUCGAAAA-5′ (SEQ ID NO: 7) (listed as RNA, chemistry not given here; listed 3' to 5'; listed as Homo sapiens)
luciferase protein expression from Dys 3′UTR reporter [1]: significantly inhibited

miR-146b-5p: microRNA mimic; hsa-miR-146b-5p 3′-UCGGAUACCUUAAGUCAAGAGU-5′ (SEQ ID NO: 3) (listed as RNA, chemistry not given here; listed 3' to 5'; listed as Homo sapiens)
luciferase protein expression from Dys 3′UTR reporter [1]: significantly inhibited
luciferase protein expression from Dys 3′UTR reporter ([1]; listed as miR-146b): most potent downregulation; also recorded: strong inhibition

C[C@]12C=CC(=O)C=C1CC[C@@H]1[C@@H]2[C@@H](O)C[C@@]2(C)[C@H]1CC[C@]2(O)C(=O)CO [prednisone, prednisolone]
miR-223 levels over untreated mice [2]: trend of decreases
miR-382 levels, increase in treated mice [6]: increased
miR-146a levels over untreated mice [3]: significantly reduced
miR-146b levels over untreated mice [4]: trend of decreases
miR-320a levels, increase in treated mice [7]: increased
